Molecules are shown by their SMILES. Numbers after ± are expanded uncertainties.

For the data set the following is noted: 101.33 kPa, Liquid, Vibrating tube method.

As for `Cc1ccc(O)cc1` [4-methylphenol], the mass density (as a rule, the mass of a sample divided by its volume) (313.15 K) was found to be 1018.8 ± 0.08 kg/m3.
Turning to `Cc1ccccc1O` [2-methylphenol], the mass density (308.15 K) turned out to be 1032.73 ± 0.28 kg/m3.
Consider `Cc1cccc(O)c1` [3-methylphenol], for which the mass density (293.15 K) worked out at 1033.85 ± 0.09 kg/m3.
Turning to `CCCCCCCC` [octane], the mass density (298.15 K) was 698.49 ± 0.23 kg/m3.
Turning to `Oc1ccccc1` [phenol], the mass density (313.15 K) came out at 1058.3 ± 0.11 kg/m3.
Consider `CCCCCCC` [heptane], for which, where the note is “298.15 K”, the mass density worked out at 679.43 ± 0.23 kg/m3.
